Structures are written as SMILES.

The assay concerns the target T1, Human SST5 somatostatin receptor (Homo sapiens, UniProt P35346).
T1 construct: expressed in transfected cells; host or cells: HEK-293 EBNA cells (membranes)
The assay is described as follows: Filter plate radio-ligand binding assay for SST5 receptor ([125I]SST-14 displacement). The settings on record: for % SST5 radio-ligand binding displaced at conc 0.25: conc 0.25 μM; for % SST5 radio-ligand binding displaced at conc 1.0: conc 1.0 μM; for % SST5 radio-ligand binding displaced at conc 50: compound conc 50 μM; for % SST5 radio-ligand binding displaced at conc 50 / % SST5 radio-ligand binding displaced at conc 250 / % SST5 radio-ligand binding displaced at conc 500: 2P library; for % SST5 radio-ligand binding displaced at conc 250: compound conc 250 μM; for % SST5 radio-ligand binding displaced at conc 500: compound conc 500 μM.

T1 sequence (P35346 whole entry): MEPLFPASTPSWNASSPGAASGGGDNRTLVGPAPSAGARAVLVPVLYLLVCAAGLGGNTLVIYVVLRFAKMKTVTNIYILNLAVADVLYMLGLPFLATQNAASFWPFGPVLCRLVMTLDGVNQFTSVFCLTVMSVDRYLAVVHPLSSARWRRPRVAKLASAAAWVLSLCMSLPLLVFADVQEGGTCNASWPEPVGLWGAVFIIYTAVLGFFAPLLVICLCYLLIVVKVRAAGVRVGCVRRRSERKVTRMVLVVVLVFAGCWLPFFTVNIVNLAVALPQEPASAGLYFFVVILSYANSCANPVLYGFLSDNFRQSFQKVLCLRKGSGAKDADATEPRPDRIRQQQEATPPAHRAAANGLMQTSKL

Turning to `COC[C@H]1O[C@H](OCc2ccc3ccccc3c2)[C@H](NC(=O)C(N)CCN)[C@@H](OCc2ccc3ccccc3c2)[C@@H]1O` (stereo partly drawn) [Compound 138], under “3P library”, the “% SST5 radio-ligand binding displaced at conc 0.25” value was “− (% SST5 radio-ligand binding displaced at cone (μM) −<40%)” and the “% SST5 radio-ligand binding displaced at conc 1.0” value is recorded as “− (% SST5 radio-ligand binding displaced at cone (μM) −<40%)”.

`COC[C@H]1O[C@@H](OCc2ccc3ccccc3c2)[C@H](NC(=O)CCN)[C@@H](OC)[C@@H]1O` [Compound 21]: the “% SST5 radio-ligand binding displaced at conc 50” value is reported as “− (% SST5 radio-ligand binding displaced at cone (μM) −<40%)”, the “% SST5 radio-ligand binding displaced at conc 250” value is “+ (% SST5 radio-ligand binding displaced at cone (μM) 60>+>40%)” and the “% SST5 radio-ligand binding displaced at conc 500” value is recorded as “++ (% SST5 radio-ligand binding displaced at conc (μM) >60%)”.

Regarding `COCC1OC(OCc2ccc3ccccc3c2)C(NC(=O)C2CCCCC2N)C(OCc2ccc3ccccc3c2)C1O` (stereo not drawn) [Compound 104], under “3P library”, the “% SST5 radio-ligand binding displaced at conc 0.25” value is “− (% SST5 radio-ligand binding displaced at cone (μM) −<40%)” and the “% SST5 radio-ligand binding displaced at conc 1.0” value was “− (% SST5 radio-ligand binding displaced at cone (μM) −<40%)”.

`COC[C@H]1O[C@H](OCc2ccc3ccccc3c2)[C@H](NC(=O)CCN)[C@H](OC)[C@@H]1O` [Compound 59]: the “% SST5 radio-ligand binding displaced at conc 50” value is “+ (% SST5 radio-ligand binding displaced at cone (μM) 60>+>40%)”, the “% SST5 radio-ligand binding displaced at conc 250” value is recorded as “++ (% SST5 radio-ligand binding displaced at conc (μM) >60%)” and the “% SST5 radio-ligand binding displaced at conc 500” value is reported as “++ (% SST5 radio-ligand binding displaced at conc (μM) >60%)”.

In the case of `COCC1OC(OCc2ccc(Cl)cc2)C(NC(=O)CN)C(OCc2ccc(-c3ccccc3)cc2)C1O` (mixture of isomers) [Compound 162], the “% SST5 radio-ligand binding displaced at conc 0.001” value (conc 0.001 μM, 3P library) was “− (% SST5 radio-ligand binding displaced at cone (μM) −<40%)”. Under “conc 0.10 μM, 3P library”, the “% SST5 radio-ligand binding displaced at conc 0.10” value is reported as “− (% SST5 radio-ligand binding displaced at cone (μM) −<40%)”. Under “3P library”, the “% SST5 radio-ligand binding displaced at conc 0.25” value is listed as “− (% SST5 radio-ligand binding displaced at cone (μM) −<40%)” and the “% SST5 radio-ligand binding displaced at conc 1.0” value is reported as “− (% SST5 radio-ligand binding displaced at cone (μM) −<40%)”. Besides, the “% SST5 radio-ligand binding displaced at conc 0.5” value (conc 0.5 μM, 3P library) is “− (% SST5 radio-ligand binding displaced at cone (μM) −<40%)”. Moreover, under “conc 10 μM, 3P library”, the “% SST5 radio-ligand binding displaced at conc 10” value is reported as “+ (% SST5 radio-ligand binding displaced at cone (μM) 60>+>40%)”.

On to `COCC1OC(SC)C(NC(=O)CN)C(OCc2ccc3ccccc3c2)C1O` (stereo not drawn) [Compound 32], for which the “% SST5 radio-ligand binding displaced at conc 50” value is recorded as “− (% SST5 radio-ligand binding displaced at cone (μM) −<40%)”, the “% SST5 radio-ligand binding displaced at conc 250” value is “− (% SST5 radio-ligand binding displaced at cone (μM) −<40%)” and the “% SST5 radio-ligand binding displaced at conc 500” value is given as “− (% SST5 radio-ligand binding displaced at cone (μM) −<40%)”.

`COC1C(O)C(COCc2ccc3ccccc3c2)OC(SC)C1NC(=O)CN` (stereo not drawn) [Compound 30]: the “% SST5 radio-ligand binding displaced at conc 50” value is given as “− (% SST5 radio-ligand binding displaced at cone (μM) −<40%)”, the “% SST5 radio-ligand binding displaced at conc 250” value is recorded as “− (% SST5 radio-ligand binding displaced at cone (μM) −<40%)” and the “% SST5 radio-ligand binding displaced at conc 500” value is on record as “+ (% SST5 radio-ligand binding displaced at cone (μM) 60>+>40%)”.

On to `NCCC(=O)NC1C(OCc2ccc3ccccc3c2)OC(COCc2ccc(Cl)cc2)C(O)C1OCc1ccccc1` (mixture of isomers) [Compound 78], for which, for the setting “3P library”, the “% SST5 radio-ligand binding displaced at conc 0.25” value is “+ (% SST5 radio-ligand binding displaced at cone (μM) 60>+>40%)” and the “% SST5 radio-ligand binding displaced at conc 1.0” value is listed as “++ (% SST5 radio-ligand binding displaced at conc (μM) >60%)”.

(Values after patent US8426345B2, “Method of drug design” (Alchemia Limited, priority 2005, dated 2013).)
